Experimental data: publication PMC12916490 (Molecular Psychiatry, 2025)
Like-named read-outs stand apart in the source and are kept apart here.

Legend:
hSERT = molecular target: T1, hSERT (Homo sapiens, UniProt P31645); test: Radioligand binding, hSERT ([3H]citalopram)
T1 construct: expressed in transfected cells; host or cells: HEK 293 cells (membrane preparation)
Protocol: Binding affinities at human monoamine receptors and transporters were assessed as previously reported. A detailed description of the methodology is provided in the Supplementary information.
The IC50 values from the radioligand binding assays were determined by nonlinear regression, using three independent concentration-response curves fitted to a one-site model. The Cheng-Prusoff equation was used to calculate Kᵢ values for the competing ligands. EC50 values were determined by applying nonlinear regression to concentration-response curves. Bias factors (β) were calculated based on the relative intrinsic activity approach. More detailed information can be found in the Supplementary information. Mean values for total number of HTR, change in body temperature from pre to post session (Δ°C), and total distance traveled (cm) for each drug dose were compared (p < 0.05) via Welch’s ANOVA with Dunnett’s T3 post test, comparing all doses to respective vehicle controls (0 mg/kg). Welch’s ANOVA with Dunnett’s T3 post test was also used to compare drug concentrations, but the data were compared to DOM in this case. Dose–response relationships for HTR and locomotor activities were plotted using bell-shaped curve fits, while temperature change data were plotted using four-parameter non-linear regression curve fits. The ascending phase of the HTR curve for each drug was used to determine ED50 potency values from four parameter non-linear regression fits. For combined DOM and DOAM administration, the plasma, brain tissue, and brain dialysate drug concentrations were compared using paired t-tests (p < 0.05).
3.1 Assessment of receptor and transporter binding affinities
Membrane preparations were prepared from cells transfected with the respective target. The membrane preparations were then incubated with selective radioligands at concentrations equal to the corresponding Kd and displacement of the ligand by the drugs was measured. The difference between total binding and nonspecific binding (determined in the presence of selective competitors) was defined as specific binding of the radioligand to the target receptor. The following transfected cell lines were used for the binding assays: HEK 293 cells (h5-HT1A, h5-HT2A, h5-HT2B, h5-HT2C, and hD2 receptors, hDAT, hNET, and hSERT), Chinese hamster ovary cells (hα 1A receptor), and Chinese hamster lung cells (hα 2A receptor).
3.1.1 Membrane preparations for receptor and transporter binding
For producing membrane preparations, transfected cells were harvested with trypsin/EDTA, washed with ice-cold phosphate buffered saline, and then pelleted by centrifugation (210 × g for 5 min at 4 °C). The pellets were frozen and stored at -80 °C until use. Frozen pellets were resuspended in 20 m L (receptor binding) or 400 m L (transporter binding) buffer (20 mM HEPES -NaOH, 10 mM EDTA, pH 7.4), and homogenized at 1,100 × g for 20 s (receptor binding) or 560 × g for 15 s (transporter binding); the homogenates were then centrifuged at 48,000 × g for 30 min at 4 °C. For receptor binding assays, the supernatants were discarded and the pellets were resuspended in 20 mL buffer (20 mM HEPES-NaOH, 0.1 mM EDTA, pH 7.4) and homogenized at 1 ,100 × g for 20 s. Centrifugation and discarding of the supernatant were repeated once, and the final pellet was then resuspended in buffer and homogenized.
3.1.2 Serotonin 5-HT1A and 5-HT2A receptor binding
Competitive binding at the h5-HT1A and h5-HT2A receptor was determined using 0.90 nM [ 3H]8-hydroxy-2-(di-n-propylamine)tetralin ([ 3H]8-OH-DPAT; h5-HT1A receptor agonist) and 0.40 nM [3H]ketanserin (h5-HT2 receptor antagonist) as radioligands. […]
binding of the radioligands was defined as difference between total binding (binding buffer alone) and nonspecific binding determined in the presence of 10 μM pindolol (h5-HT1A receptor antagonist) or 10 μM spiperone (h 5-HT2A receptor antagonist).

h5-HT1A = molecular target: T2, h5-HT1A (Homo sapiens, UniProt P08908); test: Radioligand binding, h5-HT1A receptor ([3H]8-OH-DPAT)
T2 construct: expressed in transfected cells; host or cells: HEK 293 cells (membrane preparation)
T2 sequence (P08908 1-422): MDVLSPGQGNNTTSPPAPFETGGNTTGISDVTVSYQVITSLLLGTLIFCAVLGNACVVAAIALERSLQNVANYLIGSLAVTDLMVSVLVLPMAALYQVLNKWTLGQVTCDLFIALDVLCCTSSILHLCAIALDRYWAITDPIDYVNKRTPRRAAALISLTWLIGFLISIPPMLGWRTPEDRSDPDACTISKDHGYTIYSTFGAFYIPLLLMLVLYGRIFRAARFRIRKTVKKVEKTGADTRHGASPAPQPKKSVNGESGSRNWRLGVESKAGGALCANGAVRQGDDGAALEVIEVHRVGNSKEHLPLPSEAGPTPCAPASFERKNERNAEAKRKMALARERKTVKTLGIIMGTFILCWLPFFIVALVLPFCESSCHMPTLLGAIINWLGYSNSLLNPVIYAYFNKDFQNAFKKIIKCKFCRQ

[1] = hSERT Ki, mean (95% CI), HEK 293 membranes

T1 sequence (P31645 whole entry): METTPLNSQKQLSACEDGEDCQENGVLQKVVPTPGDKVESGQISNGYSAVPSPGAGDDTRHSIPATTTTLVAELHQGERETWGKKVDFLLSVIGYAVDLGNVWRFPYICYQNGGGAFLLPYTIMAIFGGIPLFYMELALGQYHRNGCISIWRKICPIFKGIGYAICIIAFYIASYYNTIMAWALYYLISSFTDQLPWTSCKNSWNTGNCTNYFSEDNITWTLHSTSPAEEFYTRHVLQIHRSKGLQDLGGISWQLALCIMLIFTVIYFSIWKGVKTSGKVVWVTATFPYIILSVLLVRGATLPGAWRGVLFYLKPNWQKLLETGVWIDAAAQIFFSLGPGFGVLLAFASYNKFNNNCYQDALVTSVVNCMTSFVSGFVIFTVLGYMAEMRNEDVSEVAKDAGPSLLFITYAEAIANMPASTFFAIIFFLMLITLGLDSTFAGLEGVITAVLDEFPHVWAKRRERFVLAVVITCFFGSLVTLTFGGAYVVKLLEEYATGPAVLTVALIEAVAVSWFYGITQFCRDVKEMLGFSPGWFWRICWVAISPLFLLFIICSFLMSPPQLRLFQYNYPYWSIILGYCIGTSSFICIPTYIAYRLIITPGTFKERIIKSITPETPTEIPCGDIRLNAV

Structure (SMILES) | Ki (hSERT; [1]) [µM] | Ki (h5-HT1A) [µM] | Ki (h5-HT1A; read-out: Ki h5-HT1A (95% CI), receptor binding, HEK 293 membranes) [µM] | Ki (hSERT; Ki SERT, text value (range DAT and SERT 3.6–4.6)) [µM]
CCc1cc(OC)c(CC(C)N)cc1OC (stereo not shown) [DOET, 4-ethyl-2,5-dimethoxyamphetamine] | > 7 | 5.76 | – | –
COc1cc(CC(C)N)c(OC)cc1C (stereo not shown) [DOM, 4-methyl-2,5-dimethoxyamphetamine] | > 7 | – | 7.24 | –
CCCc1cc(OC)c(CC(C)N)cc1OC.Cl (stereo not shown) [DOPR, 4-propyl-2,5-dimethoxyamphetamine hydrochloride] | > 7 | 3.95 | – | –
CCCCc1cc(OC)c(CC(C)N)cc1OC (stereo not shown) [DOBU, 4-butyl-2,5-dimethoxyamphetamine] | > 7 | 13.5 | – | –
CCCCCc1cc(OC)c(CC(C)N)cc1OC (stereo not shown) [DOAM, 4-amyl-2,5-dimethoxyamphetamine] | 4.63 | 8.42 | – | 4.6
COc1ccc(OC)c(CC(C)N)c1.Cl (stereo not shown) [2,5-DMA, 2,5-Dimethoxyamphetamine hydrochloride] | > 7 | 6.02 | – | –
